Format in all cases: cell-based
The nature of series [1]: CCK-8 viability of 3T3 fibroblast cells. As to conditions: mouse, read-out: % Cell viability against 3T3 fibroblast cell line. How it is done: (§1) For the anticancer studies, we established a stable cell culture for mouse breast cancer cell line 4T1 (ATCC: CRL-2539) cultured in the medium composition RPMI-1640 (Gibco; Grand Island, New York, USA), 10% fetal bovine serum (Gibco, Mexico), 4.5 g/L glucose, 1.5 g/L NaHCO3, 1 mM sodium pyruvate (Gibco; Grand Island, New York, NY, USA), and 1% penicillin–streptomycin (10,000 U/mL). We observed typical cell morphology after the IV passage of cells unfrozen from liquid nitrogen. Then, the cells were used for the subsequent anticancer experiment. A non-cancerous fibroblast cell line (3T3/NIH, ATCC: CRL-1658) was employed for the fluorescence imaging assay. The cells were cultured in 90% Dulbecco’s modified Eagle’s medium with 4 mM L-glutamine, 2 mM sodium pyruvate, 1% non-essential amino acid, 1% penicillin/streptomycin/amphotericin, and 10% fetal bovine serum.
(§2) A total of 5.0 × 10^4 of 3T3 cells per well in a 96-well plate were co-cultured with the 1.0 μg/mL of SA samples for 72 h. The viability of the 3T3 cells was assayed by using 10% CCK-8 reagent for 60 min to determine the toxicity of the SA samples. Afterwards, the cells were fixed with glutaraldehyde, followed by staining with 0.1 μg/mL of 4′,6-diamidino-2-phenylindole (DAPI) for the imaging of the nuclei. An inverted fluorescent optical microscope (Nikon, Eclipse Ti-S, Japan) was utilized. The fluorescent light source was Nikon Intensilight C-HGFI, and two fluorescent filter cubes (Ex = 340–380 nm, Em = 435–485 nm, corresponding to DAPI, and Ex = 465–495 nm, Em = 512–558 nm, corresponding to SA samples) were used to observe the distribution of SA samples in the cytoplasm. A scientific-grade CCD (Dhyana, model: 400 BSI, Tucsen, Fuzhou, China) was used to record the images. The magnification of the OM was 200×. The original fluorescent images were recorded in greyscale. ImageJ software (an open-source software, NIH Image, version 1.54f, Bethesda, MD, USA) was employed to merge and convert two fluorescent images into visible colors, e.g., blue for cell nuclei and green for SA1–SA7 samples.

The next series deals with 3T3 fibroblast cell line. Nature of the series: CCK-8 viability of 3T3 fibroblast cells. As to conditions: 1 μg/mL, 72 h. How it is done: as §1, §2
The test system of series [2] is mouse breast cancer 4T1 cell line. In words: MTT cytotoxicity assay on 4T1 breast cancer cells. As to conditions: 24 h. How it is done:
as §1
A cellular viability assay was employed for the cytotoxicity of SA samples. […] A cell viability reagent (MTT, Sigma-Aldrich, St Louis, MI, USA) containing yellow tetrazolium salt (3-(4,5-dimethylthiazol-2-yl)-2,5-diphenyltetrazolium bromide) can be converted to purple formazan salt to indicate the cell viability. The 4T1 breast cancer cells were cultured at a density of 5.0 × 10^3 cells per well in 96-well plates. The cells were treated with SA samples for 24 h. The control groups were abbreviated as Cont (100% culture medium), representing normal cell culture; PC (20% DMSO and 80% culture medium), representing toxic condition; and NC (0.1% DMSO and 99.9%), representing minimum toxic condition. MTT reagent was added to 96-well plates to measure the cytotoxic effect of the SA compounds on 4T1 cells.
A general note: Tetrazolium assays rely on reduction of a dye to a coloured formazan, in cell work by metabolically active cells.

Where two headings read alike, the source gives them in different places. Where only a bound is given, the exact number is not on record here.

We go through seven compounds from publication PMC10816875, “Synthesis, Characterization, Cytotoxicity, Cellular Imaging, Molecular Docking, and ADMET Studies of Piperazine-Linked 1,8-Naphthalimide-Arylsulfonyl Derivatives” (International Journal of Molecular Sciences, 2024).

For `O=C1c2cccc3cccc(c23)C(=O)N1CCN1CCN(S(=O)(=O)c2ccc([N+](=O)[O-])cc2)CC1` [SA3, 2-(2-(4-((4-Nitrophenyl)sulfonyl)piperazin-1-yl)ethyl)-1H-benzo[de]isoquinoline-1,3 (2H)-dione], the viability at 72 h, 1 μg/mL in series [1] lay in the range of 82 to 95%. Besides, the “% Cell viability against 3T3 fibroblast cell line” value with 3T3 fibroblast cell line is reported as “relatively high viability”. Besides, in series [2], the “cytotoxicity against 4T1 breast cancer cells (in words)” value (shortened to “cytotoxicity”) is given as “low toxicity”. For `O=C1c2cccc3cccc(c23)C(=O)N1CCN1CCN(S(=O)(=O)c2ccc(Cl)s2)CC1` [SA4, 2-(2-(4-((5-Chlorothiophen-2-yl)sulfonyl)piperazin-1-yl)ethyl)-1H-benzo[de]isoquinoline-1,3(2H)-dione], the viability at 72 h, 1 μg/mL in series [1] lay within 82 to 95%. On to `O=C1c2cccc3cccc(c23)C(=O)N1CCN1CCN(S(=O)(=O)c2ccc3ccccc3c2)CC1` [SA2, 2-(2-(4-(Naphthalen-2-ylsulfonyl)piperazin-1-yl)ethyl)-1H-benzo[de]isoquinoline-1,3 (2H)-dione], for which the viability at 72 h, 1 μg/mL in series [1] was in the range of 82 to 95%.

For `O=C1c2cccc3cccc(c23)C(=O)N1CCN1CCN(S(=O)(=O)c2ccccc2[N+](=O)[O-])CC1` [SA1, 2-(2-(4-((2-Nitrophenyl)sulfonyl)piperazin-1-yl)ethyl)-1H-benzo[de]isoquinoline-1,3 (2H)-dione], the viability at 72 h, 1 μg/mL in series [1] (3T3/NIH fibroblast cells (non-cancerous)) was 82 to 95%. Take `O=C1c2cccc3cccc(c23)C(=O)N1CCN1CCN(S(=O)(=O)c2cccnc2)CC1` [SA6, 2-(2-(4-(Pyridin-3-ylsulfonyl)piperazin-1-yl)ethyl)-1H-benzo[de]isoquinoline-1,3(2H)-dione]: the viability at 72 h, 1 μg/mL in series [1] was in the range of 82 to 95%. In addition, the “cytotoxicity” value in series [2] is listed as “good anticancer activity”. With `N#Cc1ccc(S(=O)(=O)N2CCN(CCN3C(=O)c4cccc5cccc(c45)C3=O)CC2)cc1` [SA7, 4-((4-(2-(1,3-Dioxo-1H-benzo[de]isoquinolin-2(3H)-yl)ethyl)piperazin-1-yl)sulfonyl)benzonitrile], in series [1], the viability at 72 h, 1 μg/mL lay within 82 to 95%. Consider `O=C1c2cccc3cccc(c23)C(=O)N1CCN1CCN(S(=O)(=O)c2cccs2)CC1` [SA5, 2-(2-(4-(Thiophen-2-ylsulfonyl)piperazin-1-yl)ethyl)-1H-benzo[de]isoquinoline-1,3(2H)-dione], for which the viability at 72 h, 1 μg/mL in series [1] lay within 82 to 95%. Also, the “cytotoxicity” value in series [2] is “most potent (cytotoxic) compound”. Besides, in series [2] (Mus musculus, 4T1, 0.7 μM), the viability at 0.7 µM was less than 80%.

The term viability denotes a read-out of living cells in per cent, often relative to untreated cells.
